From patent US6410219B1 (priority 1994, dated 2002)
Structures can show the parent of a compound that is named as a salt.

Experiments:
R-17 = type: cell-based, bacteriophage R17
CA-HIV = type: cell-based
R17 [1] = type: cell-based, bacteriophage R17
red blood cells [2] = assay: IgG binding to red blood cell surfaces (Example 10); type: cell-based; settings: 10-300 μg/ml
Protocol: Potassium levels on remaining samples were measured and the samples were stored at 4° C. Potassium measurements were repeated daily for one week or until significant differences were observed. Extracellular potassium data appears in Table 15, and FIG. 6. IgG binding in the samples was measured using Baxter Unival Anti-Human Globulin Anti-IgG for Direct Antiglobulin Test and Baxter Coornbs control Cells for Quality Control of Anti-Human Globulin Test (both available from Baxter Healthcare Corporation, Deerfield, Ill.). The results of IgG Binding as measured by FACScan™ (Becton Dickinson, Mountain View, Calif.) appear in Tables 15 and 16: […]

red blood cells [3] = system: red blood cells
red blood cells [4] = settings: Swiss Webster, mouse, in vivo
red blood cells [5] = settings: mouse, in vivo
R17 [6] = type: cell-based, bacteriophage R17; remark: listed apart in the source

COc1c2occc2c(CN(C)CO)c2ccc(=O)oc12
Dose for 5 log kill R-17 (R-17): >75 μM | Logs Virus Killed at Fixed Drug Dose, R-17 (R-17): <0.5

4′-[3-(Bis-2-chloroethyl)amino-1-propylaminomethyl]-4,5′,8-trimethylpsoralen
Dose for 5 log kill R-17 (R-17): ≦2 μM | Logs Virus Killed at Fixed Drug Dose, CA-HIV (CA-HIV): 0.4

4′-[4-(Bis-2-chloroethyl)amino-1-butylaminomethyl]-4,5′,8-trimethylpsoralen [Compound S-210]
Logs Virus Killed at Fixed Drug Dose, CA-HIV (CA-HIV): 0.8

5′-[4-(Bis-2chloroethyl)amino-1-butylaminomethyl]-4,4′, 8-trimethylpsoralen
Dose for 5 log kill R-17 (R-17): ≦2 μM | Logs Virus Killed at Fixed Drug Dose, R-17 (R-17): >6 | Logs Virus Killed at Fixed Drug Dose, CA-HIV (CA-HIV): 0.7

O=C(O)CCCc1ccc(N(CCCl)CCCl)cc1 [Chlorambucil, chlorambucil]
R17 inactivation (R17 [1]): ≤ 0.4 logs | IgG binding of red cells (red blood cells [2]): did not alter | potassium leakage of red cells (red blood cells [3]): did not alter

CCN(CCCl)CCCNc1c2ccc(Cl)cc2nc2ccc(OC)cc12 [ICR-170, N-(2-chloroethyl)-N-ethyl-N′-(6-chloro-2-methoxy-9-acridinyl)-1,3-propanediamine dihydrochloride]
LOSS PER DAY (red blood cells [4]): 2.71% | RECOVERY (red blood cells [4]): 86.0 ± 6.6 | % RECOVERY, LOW (red blood cells [5]; Balb/c): 93.1% | % RECOVERY, HIGH (red blood cells [5]): 90.4%

CCN(CC)CCCC(C)Nc1c2ccc(Cl)cc2nc2ccc(OC)cc12 (stereo not shown) [Q, quinicrine]
light-dependent kill of R17 (R17 [6]): no light-dependent kill
